EC50 data for ten compounds are collected here from patent US20190359645A1, “2'3'-CYCLIC DINUCLEOTIDES COMPRISING CARBOCYCLIC NUCLEOTIDE” (Institute of Organic Chemistry and Biochemistry ASCR, V.V.I., priority 2018, published 2019).

A word on the EC50: it is the midpoint of the concentration-response curve.

Test [1] has as its target T1, WT STING (Homo sapiens, UniProt Q86WV6, H232R). In words: 293T wt STING reporter assay. It counts as cell-based. Set-up: host or cells: 293T (ATCC CRL-3216), stably transfected; also carries the 4xISRE firefly luciferase reporter. As to conditions: 293T wtSTING-FL cells, no digitonin, 7 h incubation, ISRE firefly luciferase reporter. The text has this: (§1) Two complementary oligonucleotides of the sequence […] […] […] […] (SEQ ID NO: 1) and […] […] (SEQ ID NO:2) containing four interferon-sensitive response elements (ISRE) were synthesized by Sigma Aldrich (Czech Republic, Prague). The oligonucleotides were mixed in equal molar amounts, hybridized, and cleaved by restriction endonucleases HindIII (cat. #. R^0104S, NEB, Ipswich, USA) and BglII (cat. # R^0144S, NEB, Ipswich, USA). Ultimately, they were ligated into plasmid pGL4.27 (cat. # E6651, Promega, Madison, USA) linearized with the same enzymes. As a result, the sequence with four ISRE sites was placed upstream of the minimum promoter of firefly luciferase reporter gene.
293T cells (cat. # CRL-3216, ATCC, Manassas, USA) were seeded a day before transfection at density 125,000 cells per cm^2 onto poly-D-lysine (cat. # P6407, Sigma Aldrich, Czech Republic) coated six well plates in antibiotic free DMEM with high glucose (cat. # D5796, Sigma Aldrich, Czech Republic) supplemented with 10% heat inactivated FBS (cat. # S1520, Biowest, Riverside, USA). […]
(In general: Reporter assays use an easily measured gene product as a stand-in for the process of interest.)

Test [2] deals with T1, WT STING. In words: Digitonin assay using 293T wtSTING-FL reporter cells. As to conditions: 293T wtSTING-FL cells, digitonin buffer 30 min, then 5 h, ISRE firefly luciferase reporter; read-out: Digitonin assay EC50 WT STING. It counts as cell-based. Set-up: host or cells: 293T (ATCC CRL-3216), stably transfected; also carries the 4xISRE firefly luciferase reporter.
Text: as §1
293T cells (cat. # CRL-3216, ATCC, Manassas, USA) were seeded a day before transfection at density 125,000 cells per cm^2 onto poly-D-lysine (cat. # P6407, Sigma Aldrich, Czech Republic) coated six well plates in antibiotic free DMEM with high glucose (cat. # D5796, Sigma Aldrich, Czech Republic) supplemented with 10% heat inactivated FBS (cat. # S1520, Biowest, Riverside, USA). On the day of transfection, 2.5 μg of the plasmid pUNO1-hSTING-WT (cat. # punol-hstingwt, InvivoGen, San Diego, USA,) encoding human wild type STING (WT STING) was diluted in 125 μL OptiMEM medium (cat. #31985062, ThermoFisher, Waltham, USA) and mixed with 125 μL of the same medium containing 12.5 μL of Lipofectamine 2000 (cat. #11668019, ThermoFisher, Waltham, USA). After 5 minutes incubation at room temperature (RT), 250 μL of the mixture was added dropwise to the cells in one well. Cells were incubated 36 hours at 37° C. with 5% CO2, and then detached with 0.05% Trypsin and 0.22 g/L EDTA (both cat. # L0941, Biowest, Riverside, USA).
Transfected cells were seeded onto poly-D-lysine coated six well plates at density 50,000 cells per 1 cm^2 in DMEM medium with high glucose containing 10% heat inactivated FBS, […] blasticidin (cat. # ant-bl-05, InvivoGen, San Diego, USA), 0.06 mg/ml Penicillin G and 0.1 mg/ml Streptomycin Sulfate (both cat. #. L0018, Biowest, Riverside, USA). The medium was replenished every 3-4 days until visible colonies of cells resistant to blasticidin were formed.
Blasticidin resistant cells stably expressing WT STING were further transfected with […] plasmid following the same procedure as described above. The transfected cells were selected for the resistance to 300 μg/mL hygromycin (cat. #. 10687010, ThermoFisher, Waltham, USA) in DMEM with high glucose containing 10% heat inactivated FBS, […] blasticidin, 0.06 mg/ml Penicillin G and 0.1 mg/ml Streptomycin Sulfate. Homogeneous culture of stably double transfected cells was prepared by limiting dilution of cells in 96 well plates and wells with cells were selected that originated from a single cell. These cells were expanded, and expression of WT STING was confirmed by western blot using monoclonal mouse anti STING antibodies (cat. #. MAB7169, 1:1000 dilution; […] cat. #. HAF007, 1:2000 dilution, both from R&D Systems, Minneapolis, USA), and by induction of firefly luciferase expression in the presence of 50 μM STING agonist 2′3′ cGAMP (cat. # tlrl-nacga23, InvivoGen, San Diego, USA). Genomic DNA from the transfected cells was amplified with primers pUNO1_Seq_F ([…]) (SEQ ID NO:3) and pUNO1_Seq_R ([…]) (SEQ ID NO:4) that were complementary to pUNO1 plasmid and the presence of WT STING gene in the transfected cells was confirmed by DNA sequencing.
293T wtSTING-FL cells were seeded at density of 250,000 cells per cm^2 onto 96 well poly-D-lysine coated plates in 100 μl DMEM with high glucose supplemented with 10% heat inactivated FBS. […]

Molecules are shown by their SMILES.

T1 sequence (Q86WV6 whole entry H232R): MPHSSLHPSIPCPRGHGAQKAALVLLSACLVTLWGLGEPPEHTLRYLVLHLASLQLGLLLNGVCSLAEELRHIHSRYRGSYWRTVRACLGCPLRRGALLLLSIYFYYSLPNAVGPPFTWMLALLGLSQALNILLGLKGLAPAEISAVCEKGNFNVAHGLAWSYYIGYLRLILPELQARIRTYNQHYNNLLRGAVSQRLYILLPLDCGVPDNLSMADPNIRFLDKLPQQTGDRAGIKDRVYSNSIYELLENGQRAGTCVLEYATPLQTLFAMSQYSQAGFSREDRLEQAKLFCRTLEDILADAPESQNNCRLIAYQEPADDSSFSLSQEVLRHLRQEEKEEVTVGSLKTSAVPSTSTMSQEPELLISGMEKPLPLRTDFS

On to `Nc1ncnc2c1ncn2[C@@H]1O[C@@H]2COP(=O)(S)O[C@@H]3[C@H](F)[C@@H](COP(=O)(S)O[C@H]2[C@H]1F)C[C@H]3n1cnc2c(=O)[nH]cnc21` (single isomer, unassigned) [Compound 128a], for which the EC50 on WT STING [1] came out at 11000 nM; on WT STING [2], 40 nM.
The matching figures for `Nc1ncnc2c1ncn2[C@@H]1O[C@@H]2COP(=O)(S)O[C@@H]3[C@H](F)[C@@H](COP(=O)(S)O[C@H]2[C@H]1F)C[C@H]3n1cnc2c(=O)[nH]cnc21` (single isomer, unassigned) [Compound 128d]: 500 nM and 20 nM.
For the compound `Nc1ncnc2c1ncn2[C@@H]1O[C@@H]2COP(=O)(O)OC3C(O)[C@@H](COP(=O)(O)OC2C1O)C[C@H]3n1cnc2c(=O)[nH]cnc21` (stereo partly drawn) [Compound 120, (6R,8R,15R,17R)-8-(6-amino-9H-purin-9-yl)-3,9,12,18-tetrahydroxy-17-(6-oxo-6,9-dihydro-1H-purin-9-yl)-2,4,7,11,13-pentaoxa-3λ^5,12λ^5-diphosphatricyclo[13.2.1.0^6,10]octadecane-3,12-dione], on WT STING [2], the EC50 stood at 30 nM.
Still for that read-out and setting: with `Nc1ncnc2c1ncn2[C@@H]1O[C@@H]2COP(=O)(O)OC3C(O)[C@@H](COP(=O)(O)OC2C1O)C[C@H]3n1cnc2c(=O)[nH]cnc21` (stereo partly drawn) [Compound 121, (6R,8R,15R,17R)-8-(6-amino-9H-purin-9-yl)-3,9,12,18-tetrahydroxy-17-(6-oxo-6,9-dihydro-1H-purin-9-yl)-2,4,7,11,13-pentaoxa-3λ^5,12λ^5-diphosphatricyclo[13.2.1.0^6,10]octadecane-3,12-dione] the figure was 500 nM; with `Nc1ncnc2c1ccn2[C@@H]1O[C@@H]2COP(=O)(O)OC3C(O)[C@@H](COP(=O)(O)OC2C1O)C[C@H]3n1cnc2c(=O)[nH]cnc21` (stereo partly drawn) [Compound 122, (6R,8R,15R,17R)-8-{4-amino-7H-pyrrolo[2,3-d]pyrimidin-7-yl}-3,9,12,18-tetrahydroxy-17-(6-oxo-6,9-dihydro-1H-purin-9-yl)-2,4,7,11,13-pentaoxa-3λ^5,12λ^5-diphosphatricyclo[13.2.1.0^6,10]octadecane-3,12-dione], 140 nM.
As to `Cc1cn([C@@H]2O[C@@H]3COP(=O)(O)OC4C(O)[C@@H](COP(=O)(O)OC3C2O)C[C@H]4n2cnc3c(=O)[nH]cnc32)c2ncnc(N)c12` (stereo partly drawn) [Compound 123, (6R,8R,15R,17R)-8-{4-amino-5-methyl-7H-pyrrolo[2,3-d]pyrimidin-7-yl}-3,9,12,18-tetrahydroxy-17-(6-oxo-6,9-dihydro-1H-purin-9-yl)-2,4,7,11,13-pentaoxa-3λ^5,12λ^5-diphosphatricyclo[13.2.1.0^6,10]octadecane-3,12-dione], the EC50 on WT STING [2] was determined as 300 nM.
The same measure, in the same setting: the result for `Nc1ncnc2c1c(I)cn2[C@@H]1O[C@@H]2COP(=O)(O)OC3C(O)[C@@H](COP(=O)(O)OC2C1O)C[C@H]3n1cnc2c(=O)[nH]cnc21` (stereo partly drawn) [Compound 124, (6R,8R,15R,17R)-8-{4-amino-5-iodo-7H-pyrrolo[2,3-d]pyrimidin-7-yl}-3,9,12,18-tetrahydroxy-17-(6-oxo-6,9-dihydro-1H-purin-9-yl)-2,4,7,11,13-pentaoxa-3λ^5,12λ^5-diphosphatricyclo[13.2.1.0^6,10]octadecane-3,12-dione] reads 400 nM; that for `CSc1ncnc2c1ncn2[C@@H]1O[C@@H]2COP(=O)(O)OC3C(O)[C@@H](COP(=O)(O)OC2C1O)C[C@H]3n1cnc2c(=O)[nH]cnc21` (stereo partly drawn) [Compound 125, (1S,6R,8R,9R,10S,15R,17R,18R)-3,9,12,18-tetrahydroxy-8-[16-(methylsulfanyl)-9H-purin-9-yl]-17-(6-oxo-6,9-dihydro-1H-purin-9-yl)-2,4,7,11,13-pentaoxa-3λ^5,12λ^5-diphosphatricyclo[13.2.1.0^6,10]octadecane-3,12-dione], 210 nM.
On the same count and under the same terms, the result for `Nc1ncnc2c1ncn2[C@@H]1O[C@@H]2COP(=O)(O)O[C@@H]3[C@@H](F)[C@@H](COP(=O)(O)O[C@H]2[C@H]1O)C[C@H]3n1cnc2c(=O)[nH]cnc21` [Compound 126, (1S,6R,8R,9R,10S,15R,17R,18S)-8-(6-amino-9H-purin-9-yl)-18-fluoro-3,9,12-trihydroxy-17-(6-oxo-6,9-dihydro-1H-purin-9-yl)-2,4,7,11,13-pentaoxa-3λ^5,12λ^5-diphosphatricyclo[13.2.1.0^6,10]octadecane-3,12-dione] reads 50 nM; that for `Nc1ncnc2c1ncn2[C@@H]1O[C@@H]2COP(=O)(O)O[C@@H]3[C@H](F)[C@@H](COP(=O)(O)O[C@H]2[C@H]1F)C[C@H]3n1cnc2c(=O)[nH]cnc21` [Compound 127], 30 nM.
